Source: the supplement of paper PMC4862054

What was measured:
Experiment in all cases: normalised response (% of control), CellTiter-Glo; higher = more viable cells (100 = DMSO, 0 = benzethonium chloride kill control)
Settings in all cases: incubation time: 72 h
BT-474 = tested on: BT-474
In short: (§1)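 Breast cancer cell lines (20 µl suspension) were seeded into 384-well plates holding compound at 5 concentrations in 10-fold steps over a compound-specific 10,000-fold range, then incubated 72 h. CellTox Green fluorescence (485/520 nm) was read first, then CellTiter-Glo luminescence after 10 min at room temperature. Each plate was normalised to 0.1 % DMSO (100) and a positive kill control (0). Each value is the normalised signal at a single concentration of the series.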

BT-549 = tested on: BT-549
In short: as §1

CAL-120 = tested on: CAL-120
In short: as §1

CAL-148 = tested on: CAL-148
In short: as §1

CAL-51 = tested on: CAL-51
In short: as §1

CAL-85-1 = tested on: CAL-85-1
In short: as §1

DU-4475 = tested on: DU-4475
In short: as §1

HCC1143 = tested on: HCC1143
In short: as §1

HCC1599 = tested on: HCC1599
In short: as §1

HCC1937 = tested on: HCC1937
In short: as §1

HDQ-P1 = tested on: HDQ-P1
In short: as §1

Hs578T = tested on: Hs578T
In short: as §1

MCF-10A = tested on: MCF-10A
In short: as §1

MDA-MB-231 = tested on: MDA-MB-231
In short: as §1

MDA-MB-436 = tested on: MDA-MB-436
In short: as §1

MDA-MB-453 = tested on: MDA-MB-453
In short: as §1

MDA-MB-468 = tested on: MDA-MB-468
In short: as §1

MFM-223 = tested on: MFM-223
In short: as §1

SK-BR-3 = tested on: SK-BR-3
In short: as §1

SMILES | normalised response (BT-474) [%] | normalised response (BT-549) [%] | normalised response (CAL-120) [%] | normalised response (CAL-148) [%] | normalised response (CAL-51) [%] | normalised response (CAL-85-1) [%] | normalised response (DU-4475) [%] | normalised response (HCC1143) [%] | normalised response (HCC1599) [%] | normalised response (HCC1937) [%] | normalised response (HDQ-P1) [%] | normalised response (Hs578T) [%] | normalised response (MCF-10A) [%] | normalised response (MDA-MB-231) [%] | normalised response (MDA-MB-436) [%] | normalised response (MDA-MB-453) [%] | normalised response (MDA-MB-468) [%] | normalised response (MFM-223) [%] | normalised response (SK-BR-3) [%]
CCN(CC)CCCC(C)Nc1ccnc2cc(Cl)ccc12 (stereo not given) [Chloroquine] (100 nM) | 99.9 | 103 | 98.8 | 88.6 | 71.1 | 94.5 | 92.9 | 103 | 46 | 103 | 102 | 102 | 93.7 | 96.7 | 103 | 91.5 | 91.7 | 100 | 88.3
CC1(C)CCC(c2ccc(Cl)cc2)=C(CN2CCN(c3ccc(C(=O)NS(=O)(=O)c4ccc(N[C@H](CCN5CCOCC5)CSc5ccccc5)c(S(=O)(=O)C(F)(F)F)c4)cc3)CC2)C1 [Navitoclax] (10 nM) | 94.5 | 99.5 | 91.7 | 90 | 115 | 97 | 99.4 | 95.9 | 103 | 101 | 87.5 | 99.7 | 98.6 | 98.1 | 98 | 100 | 87.6 | 96.7 | 77.3
CCn1c(C(=O)N(C2CC2)C2CC2)cc2c3c(ncn3C)c(Nc3cc(C)n(C)n3)nc21 (1 nM) | 92.6 | 103 | 94.4 | 97.4 | 135 | 105 | 99.7 | 100 | 96.7 | 105 | 99.6 | 98 | 102 | 106 | 97.9 | 89.3 | 100 | 102 | 102
CN[C@@H](C)C(=O)N[C@H]1CN(C(=O)CC(C)C)CC[C@H]2CC[C@@H](C(=O)NC(c3ccccc3)c3ccccc3)N2C1=O [AT-406] (1 nM) | 101 | 106 | 98.4 | 98.3 | 125 | 96.8 | 98.2 | 109 | 104 | 101 | 99.9 | 95.1 | 108 | 98.3 | 108 | 103 | 98.3 | 101 | 105
CNC(=O)c1ccccc1Sc1ccc2c(/C=C/c3ccccn3)n[nH]c2c1 [Axitinib] (10 nM) | 107 | 107 | 96.7 | 101 | 121 | 102 | 102 | 102 | 111 | 100 | 103 | 97.7 | 103 | 107 | 103 | 107 | 96.8 | 105 | 106
CC(C)C[C@H](NC(=O)[C@@H](COC(C)(C)C)NC(=O)[C@H](Cc1ccc(O)cc1)NC(=O)[C@H](CO)NC(=O)[C@H](Cc1c[nH]c2ccccc12)NC(=O)[C@H](Cc1cnc[nH]1)NC(=O)[C@@H]1CCC(=O)N1)C(=O)N[C@@H](CCCNC(=N)N)C(=O)N1CCC[C@H]1C(=O)NNC(N)=O [Goserelin] (10 nM) | 98 | 99.4 | 101 | 94.6 | 92.5 | 93.8 | 100 | 99.2 | 98.5 | 93.7 | 101 | 99.5 | 102 | 94 | 98 | 102 | 96.1 | 94.2 | 119
Cc1cn(-c2cc(NC(=O)c3ccc(C)c(Nc4nccc(-c5cccnc5)n4)c3)cc(C(F)(F)F)c2)cn1 [Nilotinib] (10 nM) | 100 | 103 | 88.6 | 92.7 | 85.8 | 100 | 106 | 96.5 | 104 | 96.5 | 93.5 | 94 | 104 | 91.2 | 94.1 | 103 | 98.8 | 97.3 | 105
CCN(CC)CCCC(C)Nc1ccnc2cc(Cl)ccc12 (stereo not given) [Chloroquine] (10 nM) | 96.5 | 107 | 103 | 89.2 | 126 | 99.8 | 92.2 | 104 | 90.9 | 95.3 | 99 | 104 | 101 | 101 | 113 | 103 | 95.2 | 96.7 | 92.5
C=CCN(/C=C1/C(=O)O[C@H](COC)[C@@]2(C)C1=C(O)C(=O)C1=C2[C@H](OC(C)=O)C[C@]2(C)C(=O)CC[C@@H]12)CC=C [Sonolisib] (1 nM) | 107 | 103 | 107 | 110 | 75.2 | 103 | 103 | 102 | 116 | 101 | 95.6 | 105 | 108 | 109 | 102 | 119 | 104 | 107 | 109
Cc1nc(C(=O)NCC(=O)O)c(O)c2ccc(Oc3ccccc3)cc12 [FG-4592] (1 nM) | 94.7 | 104 | 98.5 | 102 | 89.8 | 98.9 | 103 | 108 | 100 | 102 | 106 | 103 | 111 | 101 | 96.2 | 109 | 98.4 | 102 | 111
